{
  "source": "patent US7745161B2",
  "about": "“Amplification of enzymatic reactions for use with an enthalpy array” (Palo Alto Research Center Incorporated, priority 2003, dated 2010)",
  "target": "T1, GPCR P2Y6 receptor complex (Homo sapiens, UniProt Q15077)",
  "T1 construct": "made in house; host or cells: baculovirus-inoculated insect cell (membrane fragments)",
  "T1 sequence (Q15077 whole entry, the tested form may be a part, one chain of several)": "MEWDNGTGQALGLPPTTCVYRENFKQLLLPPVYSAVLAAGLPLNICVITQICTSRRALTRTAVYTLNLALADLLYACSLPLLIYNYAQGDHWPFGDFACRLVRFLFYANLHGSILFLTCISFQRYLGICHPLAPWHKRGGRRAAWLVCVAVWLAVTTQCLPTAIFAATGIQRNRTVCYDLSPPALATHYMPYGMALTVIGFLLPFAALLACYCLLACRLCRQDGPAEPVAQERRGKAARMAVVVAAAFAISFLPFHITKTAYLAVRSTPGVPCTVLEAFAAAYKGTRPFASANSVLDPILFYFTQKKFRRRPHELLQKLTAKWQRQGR",
  "assay": "Nanocalorimetry measurement of agonist binding to a GPCR, amplified by G-protein hydrolysis of GTP",
  "format": "biochemical",
  "conditions": "after merging [UDP]=0.4 mM, [GTP]=1.15 mM",
  "excerpt": "We have measured reactions involving agonist binding to a GPCR (G-protein coupled receptor), at low GPCR concentration, by using the associated G-protein hydrolysis of GTP as the source of the amplified heat of reaction. Most of the heat in this example is from GTP hydrolysis by G-proteins activated by a GPCR with a bound agonist. GPCRs are transmembrane proteins that bind […] (e.g. agonist or inhibitor) on the extracellular side and, upon receptor binding, cause a G-protein (also a membrane protein) on the intracellular side to exchange GDP for GTP. After binding GTP, the G-protein dissociates from the GPCR, and the α subunit dissociates from the β-γ complex. The α subunit and β-γ complex can then migrate independently along the membrane and interact with targets.\nExplaining this measurement in terms of FIG. 2A, the GPCR is the primary enzyme 44. We refer to the GPCR as an enzyme because it catalyzes the exchange of GDP for GTP on the G-protein and the subsequent dissociation of the α subunit of the G-protein from the β-γ complex. The G-protein before the GDP-GTP exchange and dissociation can be considered the substrate 40. The GPCR is also […], and as such it is activated in this example by binding of agonist, which is therefore an activator 42. The products 46 of the primary enzymatic reaction are the α subunit and β-γ complex of the dissociated G-protein. […]",
  "data": [
    {"smiles": "O=c1ccn([C@@H]2O[C@H](COP(=O)(O)OP(=O)(O)O)[C@@H](O)[C@H]2O)c(=O)[nH]1", "note": "[UDP]", "values": [
      {"measurement": "nanocalorimeter signal magnitude (differential temperature)", "setting": "fragmented membranes with over-expressed P2Y6, 1 mg/ml total protein, 250 nL drops", "value": 1.2, "unit": "m° C."},
      {"measurement": "duration of nanocalorimeter signal after the drops are merged", "setting": "fragmented membranes with over-expressed P2Y6", "value": "1 to 2", "unit": "s"}
    ]}
  ]
}
